Bounds are passed on as bounds.

Data set [1] deals with T1, CYP2C19 (Homo sapiens, UniProt P33261).
T1 construct: human hepatic microsomal fraction containing CYP; from tissue; host or cells: human liver microsomes
The data set is described as follows: Time-dependent CYP inhibition (Method 1), human hepatic microsome. Conditions: 30 min pre-incubation at 37° C., S-mephenytoin, average, n = 2. It is filed as in vitro ADME.

The target in data set [2] is T2, CYP3A4 (Homo sapiens, UniProt P08684).
T2 construct: human hepatic microsomal fraction containing CYP; from tissue; host or cells: human liver microsomes
T2 sequence (P08684 whole entry): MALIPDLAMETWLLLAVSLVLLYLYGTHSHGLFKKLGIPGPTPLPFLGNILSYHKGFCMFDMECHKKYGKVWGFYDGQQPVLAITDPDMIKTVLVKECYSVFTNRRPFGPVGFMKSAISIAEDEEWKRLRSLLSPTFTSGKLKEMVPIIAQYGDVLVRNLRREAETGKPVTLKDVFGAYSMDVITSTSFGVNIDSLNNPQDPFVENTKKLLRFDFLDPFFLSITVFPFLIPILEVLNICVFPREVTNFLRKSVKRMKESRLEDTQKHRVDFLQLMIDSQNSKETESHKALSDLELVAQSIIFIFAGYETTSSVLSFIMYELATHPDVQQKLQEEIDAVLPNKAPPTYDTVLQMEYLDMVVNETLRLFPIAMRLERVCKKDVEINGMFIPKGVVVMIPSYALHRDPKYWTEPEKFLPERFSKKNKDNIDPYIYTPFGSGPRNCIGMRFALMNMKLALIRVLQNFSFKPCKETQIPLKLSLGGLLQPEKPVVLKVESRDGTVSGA
The data set is described as follows: Competitive CYP inhibition (Method 2), human hepatic microsome. The data set is classed as in vitro ADME. Conditions: midazolam 3 μM, n = 2, read-out: IC50 score, CYP3A4. How it is done: The inhibition rate was determined from the amounts of model substrate metabolites with and without addition of the test substance at each test substance concentration, and the IC50 value was calculated from the inhibition rate (calculation method in accordance with Xenobiotica, 1999, 29(1), 53-75).

The target of data set [3] is T3, CYP2D6 (Homo sapiens, UniProt P10635).
T3 construct: human hepatic microsomal fraction containing CYP; from tissue; host or cells: human liver microsomes
T3 sequence (P10635 whole entry): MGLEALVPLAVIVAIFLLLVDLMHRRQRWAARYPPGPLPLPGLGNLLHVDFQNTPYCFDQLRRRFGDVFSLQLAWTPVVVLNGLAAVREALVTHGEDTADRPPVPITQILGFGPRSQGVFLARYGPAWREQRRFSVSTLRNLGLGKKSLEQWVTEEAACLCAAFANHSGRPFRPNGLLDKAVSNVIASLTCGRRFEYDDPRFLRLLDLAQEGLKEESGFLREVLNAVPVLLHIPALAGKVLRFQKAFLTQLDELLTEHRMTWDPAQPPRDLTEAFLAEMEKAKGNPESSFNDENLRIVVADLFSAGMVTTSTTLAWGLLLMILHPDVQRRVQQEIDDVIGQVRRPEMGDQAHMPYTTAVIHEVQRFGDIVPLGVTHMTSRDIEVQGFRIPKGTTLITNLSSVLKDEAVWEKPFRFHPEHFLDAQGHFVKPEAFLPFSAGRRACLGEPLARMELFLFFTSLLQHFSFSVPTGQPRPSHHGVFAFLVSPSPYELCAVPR
The data set is described as above. The settings on record: bufuralol 10 μM, n = 2, read-out: IC50 score, CYP2D6. The data set is classed as in vitro ADME. How it is done:
(§1) The test substance was added at a final concentration of 1 or 10 μM to an enzyme solution (containing human hepatic microsome (0.2 mg/mL), 100 mM Kpi and 0.1 mM EDTA) containing a model substrate solution, and incubated for 10 minutes at 37° C. in the presence of an NADPH generating system. An equal amount of a mixed solution of acetonitrile and methanol (1:1, containing 0.05 μM dextrophan or 0.05 μM propranolol as an internal standard) was added to terminate the reaction, and metabolites of the model substrate in the reaction solution were measured by LC-MS/MS. A similar test was performed without addition of the test substance as a control test. The inhibition rate was determined from the amounts of model substrate metabolites with and without addition of the test substance at each test substance concentration, and the IC50 value was calculated from the inhibition rate (calculation method in accordance with Xenobiotica, 1999, 29(1), 53-75). […] [table]

In data set [4] the target is T1, CYP2C19. The data set is described as above. It is filed as in vitro ADME. The settings on record: S-mephenytoin 40 μM, n = 2, read-out: IC50 score, CYP2C19. How it is done: as §1
In data set [5] the target is T4, CYP2C9 (Homo sapiens, UniProt P11712).
T4 construct: human hepatic microsomal fraction containing CYP; from tissue; host or cells: human liver microsomes
T4 sequence (P11712 whole entry): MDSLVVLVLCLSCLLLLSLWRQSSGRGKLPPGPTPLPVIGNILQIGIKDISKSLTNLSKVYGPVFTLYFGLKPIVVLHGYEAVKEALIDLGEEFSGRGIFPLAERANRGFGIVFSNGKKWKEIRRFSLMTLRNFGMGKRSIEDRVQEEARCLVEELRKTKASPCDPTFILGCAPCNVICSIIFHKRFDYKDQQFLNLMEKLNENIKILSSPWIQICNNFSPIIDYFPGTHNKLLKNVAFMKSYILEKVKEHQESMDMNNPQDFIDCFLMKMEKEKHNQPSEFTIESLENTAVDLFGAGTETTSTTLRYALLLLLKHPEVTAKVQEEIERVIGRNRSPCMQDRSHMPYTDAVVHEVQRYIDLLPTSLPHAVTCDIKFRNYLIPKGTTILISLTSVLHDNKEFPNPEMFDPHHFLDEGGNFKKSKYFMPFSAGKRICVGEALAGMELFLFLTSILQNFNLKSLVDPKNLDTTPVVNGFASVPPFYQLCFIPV
The data set is described as above. It is filed as in vitro ADME. The settings on record: human liver microsomes, probe tolbutamide 100 μM, n = 2, read-out: IC50 score, CYP2C9. How it is done:
as §1

Data set [6] concerns the target T5, CYP1A2 (Homo sapiens, UniProt P05177).
T5 construct: human hepatic microsomal fraction containing CYP; from tissue; host or cells: human liver microsomes
T5 sequence (P05177 1-516): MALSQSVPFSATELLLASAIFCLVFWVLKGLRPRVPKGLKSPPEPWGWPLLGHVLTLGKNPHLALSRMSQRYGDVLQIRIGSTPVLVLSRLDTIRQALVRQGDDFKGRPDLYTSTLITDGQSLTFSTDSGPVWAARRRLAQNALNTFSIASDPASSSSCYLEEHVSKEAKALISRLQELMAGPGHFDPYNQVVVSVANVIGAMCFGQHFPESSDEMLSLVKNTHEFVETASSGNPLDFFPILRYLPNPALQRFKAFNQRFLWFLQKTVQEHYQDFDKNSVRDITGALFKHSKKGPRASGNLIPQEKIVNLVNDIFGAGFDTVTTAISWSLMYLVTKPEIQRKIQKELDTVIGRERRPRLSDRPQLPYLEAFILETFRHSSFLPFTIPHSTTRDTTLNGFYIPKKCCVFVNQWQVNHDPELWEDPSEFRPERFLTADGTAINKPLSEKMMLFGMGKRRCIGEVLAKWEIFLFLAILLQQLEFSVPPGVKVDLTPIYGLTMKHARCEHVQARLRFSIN
The description is as above. It is filed as in vitro ADME. The settings on record: phenacetin 10 μM, n = 2, read-out: IC50 score, CYP1A2. How it is done: as §1

Data set [7] concerns the target T2, CYP3A4. In words: Time-dependent CYP inhibition (Method 1), human hepatic microsome. It is filed as in vitro ADME. Conditions: 30 min pre-incubation at 37° C., midazolam, average, n = 2. The protocol: (§2) Competitive inhibition of CYP was also tested as Method 2. […] The test substance was added to an enzyme solution (containing human hepatic microsome (0.2 mg/mL), 100 mM Kpi and 0.1 mM EDTA), and pre-incubated for 30 minutes at 37° C. in the presence of or absence of the coenzyme. The final concentration of the test substance was set at 0.1, 0.2, 0.4, 0.5, 1, 2, 10 or 50 μM. A NADPH generating system (60 mM MgCl2 solution containing 3.6 mM β-NADP^+, 90 mM glucose-6-phosphate and 1 Unit/mL glucose-6-phosphate dehydrogenase, incubated for 5 minutes to generate NADPH) was used as the coenzyme. After pre-incubation, part of the reaction solution was collected, diluted 10 times by mixing with a model substrate solution and the NADPH generating system, and then incubated for 10 minutes at 37° C. An equal amount of a mixed solution of acetonitrile and methanol (1:1, containing 0.05 μM dextrophan or 0.05 μM propranolol as an internal standard) was added to terminate the reaction, and metabolites of the model substrate in the reaction solution were measured by LC-MS/MS. A similar test was also performed with no test substance added as a control test. The ratio relative to the amount of model substrate metabolites in the control test was given as residual activity. The ratio of residual activity in the presence of NADPH relative to residual activity in the absence of NADPH was evaluated, and the ratio of 80% or less was defined “+”, while the ratio of above 80% was defined as “−”. [table]

The target in data set [8] is T3, CYP2D6. Described as above. The data set is classed as in vitro ADME. The settings on record: 30 min pre-incubation at 37° C., bufuralol, average, n = 2. How it is done:
as §2

Data set [9] concerns the target T4, CYP2C9. The description is as above. It is filed as in vitro ADME. Conditions: 30 min pre-incubation at 37° C., tolbutamide, average, n = 2. How it is done: as §2
The target of data set [10] is T5, CYP1A2. The data set is described as above. The data set is classed as in vitro ADME. The settings on record: 30 min pre-incubation at 37° C., phenacetin, average, n = 2. The protocol: as §2
In data set [11] the target is T6, endothelin receptor A (EDNRA) (Homo sapiens, UniProt P25101).
T6 construct: The protein coding region of human derived EDNRA (gene number NM_001957.2) was transduced; expressed in transfected cells
T6 sequence (P25101 21-427): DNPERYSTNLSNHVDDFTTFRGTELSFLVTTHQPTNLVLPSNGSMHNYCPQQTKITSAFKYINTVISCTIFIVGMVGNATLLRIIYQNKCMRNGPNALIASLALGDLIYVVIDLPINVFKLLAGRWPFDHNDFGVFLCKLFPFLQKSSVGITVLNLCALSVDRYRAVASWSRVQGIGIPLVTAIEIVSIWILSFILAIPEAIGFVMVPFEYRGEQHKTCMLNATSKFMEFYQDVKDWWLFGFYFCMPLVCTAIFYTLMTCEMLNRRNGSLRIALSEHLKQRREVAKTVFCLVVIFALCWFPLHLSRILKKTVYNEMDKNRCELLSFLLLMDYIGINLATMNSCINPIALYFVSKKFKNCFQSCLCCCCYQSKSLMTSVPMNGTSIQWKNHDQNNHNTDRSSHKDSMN
In words: Suppression of endothelin-induced Ca2+ elevation in EDNRA/293 cells. It is filed as cell-based. Conditions: 0.03, 0.1 or 0.3 nM endothelin, FIG. 2 and FIG. 3. From the text:
The protein coding region of human derived EDNRA (gene number NM_001957.2) was transduced into HEK-293 (Human Embryonic Kidney, ATCC No. CRL-1573) cells with a murine leukemia retrovirus vector, to prepare a cell line stably expressing EDNRA (EDNRA/293 cells). DMEM (Dulbecco's Modified Eagle Medium) supplemented with 10% fetal bovine serum and penicillin and streptomycin was used as the culture medium.
One day before measurement, the EDNRA/293 cells were inoculated on a 384-well plate at 5000 cells/well. On the day of measurement, a fluorescent reagent for calcium measurement (Calcium4, Molecular Device) dissolved in Hanks balanced buffer solution was added to each well, and allowed standing for about 1 hour.
Endothelin, an EDNRA ligand (activator) was applied to the wells not treated with the specimens, and the resulting activation (calcium elevation) reaction was detected by a measuring instrument (FDSS7000, Hamamatsu Photonics) to obtain a dose-dependent activation reaction as shown in FIG. 1. At doses of 1 nM or more, the activation reaction became almost saturated. For this reason, the doses of endothelin used for detection in the suppression reactions below were set at 0.03, 0.1 or 0.3 nM.

T1 sequence (P33261 whole entry): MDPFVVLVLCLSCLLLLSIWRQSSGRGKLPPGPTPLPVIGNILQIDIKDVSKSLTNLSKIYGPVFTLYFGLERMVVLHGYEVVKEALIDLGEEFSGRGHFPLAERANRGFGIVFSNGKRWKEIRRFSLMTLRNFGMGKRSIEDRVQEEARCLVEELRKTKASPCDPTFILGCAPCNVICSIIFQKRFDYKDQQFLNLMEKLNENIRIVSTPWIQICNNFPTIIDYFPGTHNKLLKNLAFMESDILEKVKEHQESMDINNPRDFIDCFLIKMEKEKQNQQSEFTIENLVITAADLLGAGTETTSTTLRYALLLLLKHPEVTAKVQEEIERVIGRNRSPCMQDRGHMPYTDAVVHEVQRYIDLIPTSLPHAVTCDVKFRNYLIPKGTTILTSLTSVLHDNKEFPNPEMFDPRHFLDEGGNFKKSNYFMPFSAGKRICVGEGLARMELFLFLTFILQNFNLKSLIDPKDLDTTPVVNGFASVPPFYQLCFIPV

`Cc1cc2c(cc1CC(=O)c1sccc1S(=O)(=O)Nc1onc(C)c1Cl)COC2` [Example 1, N-(4-chloro-3-methyl-1,2-oxazol-5-yl)-2-[2-(6-methyl-1,3-dihydro-2-benzofuran-5-yl)acetyl]thiophene-3-sulfonamide]: the “Ratio of residual CYP2C19 activity in presence of NADPH relative to absence of NADPH” value at CYP2C19 [1] (test substance 10 μM) and at CYP2C19 [1] (test substance 50 μM) was “− (the ratio of above 80% was defined as “−”)” throughout. Besides, the IC50 on CYP3A4 [2], at CYP2D6 [3], on CYP2C19 [4] and on CYP1A2 [6] was over 10 µM each time. The IC50 at 10 min on CYP2C9 [5] was under 1 µM. In addition, the “Ratio of residual CYP3A4 activity in presence of NADPH relative to absence of NADPH” value was “− (the ratio of above 80% was defined as “−”)” at CYP3A4 [7] (test substance 10 μM) and “+ (the ratio of 80% or less was defined “+”)” at CYP3A4 [7] (test substance 50 μM). Also, the “Ratio of residual CYP2D6 activity in presence of NADPH relative to absence of NADPH” value at CYP2D6 [8] (test substance 10 μM) and on CYP2D6 [8] (test substance 50 μM) was “− (the ratio of above 80% was defined as “−”)” each time. Also, the “Ratio of residual CYP2C9 activity in presence of NADPH relative to absence of NADPH” value on CYP2C9 [9] (test substance 10 μM) and on CYP2C9 [9] (test substance 50 μM) was “− (the ratio of above 80% was defined as “−”)” throughout. The “Ratio of residual CYP1A2 activity in presence of NADPH relative to absence of NADPH” value at CYP1A2 [10] (test substance 10 μM) and at CYP1A2 [10] (test substance 50 μM) was “− (the ratio of above 80% was defined as “−”)” each time. In addition, the “Suppression of activation (calcium elevation) reaction by endothelin” value in data set [11] was “suppressed the activation reaction”.

In the case of `Cc1cc2c(cc1CC(=O)c1sccc1S(=O)(=O)Nc1onc(C)c1Cl)OCO2` [Sitaxentan, N-(4-chloro-3-methyl-1,2-oxazol-5-yl)-2-[2-(6-methyl-2H-1,3-benzodioxol-5-yl)acetyl]thiophene-3-sulfonamide, reference compound], the 50% inhibitory concentration (IC50) on CYP2D6 [3] was over 10 µM; on CYP2C19 [4], 1 to 10 µM; at CYP1A2 [6], over 10 µM. In addition, the half-inhibitory concentration (IC50) at 10 min on CYP2C9 [5] is under 1 µM. In addition, the “Suppression of activation (calcium elevation) reaction by endothelin” value in data set [11] is “suppressed the activation reaction”.

One may read the IC50 as the concentration needed to halve the response being measured.

The record behind these values is patent publication US8592470B2 (Eisai R&D Management Co., Ltd., priority 2012, dated 2013).
